Experimental data taken from patent US10626349B2, “Cleavable surfactants” (PROMEGA CORPORATION, priority 2007, dated 2020).
Entries after “also recorded” stand apart in the source; their conditions may differ.

How the values were obtained:
[1] = molecular target: T1, Bacteriorhodopsin digested with chymotrypsin (Halobacterium salinarum, UniProt P02945); test: Bacteriorhodopsin/Chymotrypsin digest, HPLC peak area versus RapiGest control; format: biochemical; settings: at 0.1% surfactant, BR boiled with surfactant, chymotrypsin 10:1
T1 sequence (P02945 14-261 limits assumed): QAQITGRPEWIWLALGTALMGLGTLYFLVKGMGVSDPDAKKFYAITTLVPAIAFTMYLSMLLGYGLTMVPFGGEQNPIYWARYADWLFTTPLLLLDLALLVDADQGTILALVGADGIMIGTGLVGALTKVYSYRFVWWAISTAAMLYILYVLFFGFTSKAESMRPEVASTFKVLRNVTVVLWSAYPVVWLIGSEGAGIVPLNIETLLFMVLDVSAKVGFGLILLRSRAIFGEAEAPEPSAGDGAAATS

[2] = Solubility of the surfactant; settings: for solubility in aqueous solutions (concentration dissolved to): aqueous solution; for solubility (concentration dissolved to): in 50 mM ammonium bicarbonate
trypsin = trypsin (Sus scrofa, UniProt P00761); test: Trypsin activity measured as rate of BAEE cleavage; format: biochemical; settings: standard digestion conditions
trypsin, sequence (P00761 9-231): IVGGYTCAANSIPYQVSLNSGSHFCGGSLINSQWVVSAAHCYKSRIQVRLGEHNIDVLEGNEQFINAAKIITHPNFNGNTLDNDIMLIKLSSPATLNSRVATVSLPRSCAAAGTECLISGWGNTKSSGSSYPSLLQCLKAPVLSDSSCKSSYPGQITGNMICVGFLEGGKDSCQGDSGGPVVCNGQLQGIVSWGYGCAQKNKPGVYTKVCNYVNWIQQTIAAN
Source text: Compound 3116 can be used as an acid-labile surfactant to facilitate the solubilization and denaturation of a protein or peptide. Compound 3116 stabilizes proteases and enhances the proteolysis activity of trypsin. See FIG. 2, which illustrates the effect of compound 3116 on trypsin activity.

[3] = Acid and thermal degradation of the surfactant; settings: for time to degradation in 0.5% TFA: 0.1% solution for 3220 and 3266
[4] = molecular target: T2, Myoglobin from horse heart digested with trypsin (Equus caballus, UniProt P68082); test: Myoglobin/Trypsin digest, HPLC peak area versus RapiGest control; format: biochemical; settings: 0.01% surfactant, trypsin 50:1, 20 minutes at 37° C.; ratio to RapiGest control, >1 = more digestion
T2 construct: Myoglobin from horse heart; from tissue; host or cells: horse heart
T2 sequence (P68082 2-154 limits assumed): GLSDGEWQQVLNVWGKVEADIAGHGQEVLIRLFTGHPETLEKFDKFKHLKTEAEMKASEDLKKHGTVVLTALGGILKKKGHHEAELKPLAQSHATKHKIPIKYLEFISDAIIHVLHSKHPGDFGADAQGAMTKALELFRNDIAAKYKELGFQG
Method: Myoglobin from horse heart (typically 25 μs) was digested with trypsin (Promega) at a 50:1 ratio in a volume of 125 μL (typical) of 50 mM Ammonium bicarbonate for 20 minutes at 37° C. with 0.01% RapiGest™ surfactant or 0.01% of the indicated compound of the invention (upper and lower chromatograms, respectively). TFA was added to 0.5-2% and the mixtures were incubated at 37° C. or 65° C. for 20 or 30 minutes. Degraded surfactant was removed by centrifugation at 14,000×g for 5 minutes. HPLC analysis was performed on a 25-50 μL reaction sample using an HP1050 LC system with an Agilent Sorbax SB-C18 column (3.0×100 mm, 3.5 micron) and a gradient of 0.1% TFA (97.5% initial) and Acetonitrile, 0.01% TFA (55% final condition followed by a 100% wash step) and a flow rate of 0.75 mL/min. Peptides were detected at 214 and 280 nm.
(§1) For each compound numbered below in Example 12, the rate of enhanced digestion was determined from the ratio of the surfactant peak area (surfactant # Pk. Area) to the Rapigest™ surfactant peak area (RG Pk area). Peak area was determined as the sum of all peaks integrated from 8-22 minutes.

[5] = molecular target: T1, Bacteriorhodopsin digested with chymotrypsin; test: Bacteriorhodopsin/Chymotrypsin digest, HPLC peak area versus RapiGest control; format: biochemical; settings: 0.025% surfactant
Method: Bacteriorhodopsin (25 μs) was heated with 0.025% Rapigest™ surfactant or the indicated compound of the invention for 5 minutes at 95° C., then digested with chymotrypsin (Sigma) at a 10:1 ratio in 125 μL 50 mM Ammonium bicarbonate for 1 hour at 37° C. After one hour TFA was added to 0.5-2% and the mixtures were incubated at 37° C. or 65° C. for 20 or 30 minutes. Degraded surfactant was removed by centrifugation at 14,000×g for 5 minutes. An aliquot of 50-100 μL of digested protein was analyzed by HPLC as described above.
Compound 3211, 3212, 3224 and Rapigest™ surfactant control for FIG. 13C reactions: Bacteriorhodopsin (25 μs) was solubilized with 0.025% compound of interest for 1-2 minutes at room temperature, then digested with chymotrypsin (Sigma) at a 10:1 ratio in 125 μL 50 mM Ammonium bicarbonate for 1 hour at 37° C. After one hour TFA was added to 0.5-2% and the mixtures were incubated at 37° C. or 65° C. for 20 or 30 minutes. Degraded surfactant was removed by centrifugation at 14,000×g for 5 minutes. An aliquot of 50-100 μL of digested protein was analyzed by HPLC as described above.
as §1

[6] = molecular target: Horse myoglobin digested with trypsin (Equus caballus, UniProt P68082); test: One hour digestion of myoglobin with trypsin (HPLC); format: biochemical; settings: for digestion of myoglobin in one hour (in words): trypsin, 3116: 0.01%, 50:1, one hour at 37° C.
Horse myoglobin digested with trypsin, sequence (P68082 2-154 limits assumed): as above
Method: For example, digestion of myoglobin using standard protocol requires overnight digestion. […] Horse myoglobin was digested with trypsin at a 50:1 ratio for one hour at 37° C., alone and separately in the presence of 0.01% compound 3116.
The peaks in FIG. 3A and FIG. 3B indicate peptides or partial digestion fragments.

[7] = molecular target: T3, Ovalbumin (albumin from chicken egg white) treated with PNGase F (Gallus gallus, UniProt P01012); test: Deglycosylation of ovalbumin with PNGase F (SDS-PAGE); format: biochemical; settings: 0.025% surfactant, 1 hour and 20 minutes at 37° C.
T3 construct: Ovalbumin (albumin from chicken egg white); purchased Sigma
T3 sequence (P01012 2-386 limits assumed): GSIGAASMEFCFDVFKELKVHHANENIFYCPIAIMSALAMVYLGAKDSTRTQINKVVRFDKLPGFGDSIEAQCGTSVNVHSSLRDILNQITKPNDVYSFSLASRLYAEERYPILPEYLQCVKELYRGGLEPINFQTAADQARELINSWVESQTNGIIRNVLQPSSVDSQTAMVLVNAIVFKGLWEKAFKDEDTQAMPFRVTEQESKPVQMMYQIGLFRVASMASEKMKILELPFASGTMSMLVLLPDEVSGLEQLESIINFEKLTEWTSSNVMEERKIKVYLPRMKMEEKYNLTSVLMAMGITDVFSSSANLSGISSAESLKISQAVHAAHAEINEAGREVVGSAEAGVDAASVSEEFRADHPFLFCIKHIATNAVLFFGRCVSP
Method: Surfactants described herein were evaluated as replacements for SDS in deglycolsylation protocols. Ovalbumin (albumin from chicken egg white) was selected as a model protein. Ovalbumin is a 44.3 kD glycoprotein with 1.4 kD carbohydrate units linked to the protein. […] Surfactant compound 3266 is acid-labile and it can be easily degraded, allowing for analysis of the protein and carbohydrate using mass spectrometric analysis.
Ovalbumin (Sigma) (45 μg) was dissolved in 0.025% 3266/5 mM DTT/25 mM ammonium bicarbonate (pH ˜8) and incubated at 95° C. for 5 minutes. In the control reaction, 3266 was replaced with SDS. Deglycosylation was initiated by adding 1.5μ units PNGase F (Sigma). After 1 hour and 20 minutes of incubation at 37° C., the reactions were terminated by incubation at 95° C. for 5 minutes and an aliquot from each reaction was resolved with SDS-PAGE. […] The analyses indicate that compound 3266 is equivalent to the deglycosylation enhancement found using SDS, while eliminating the deleterious effects of SDS in concomitant spectrometric and chromatographic analysis.

[8] = Hydrolytic stability in 50 mM ammonium bicarbonate (reverse-phase HPLC); format: physicochemical; design: key: >>: compound 100% stable over course of experiment
Method: Hydrolytic stability was measured by monitoring the change in retention time of the intact surfactant by reverse-phase HPLC. The ½-life is defined as the time required to reach 50% degradation.

[9] = molecular target: T4, beta subunit of mouse ATP synthase (Mus musculus, UniProt P56480); test: In-gel trypsin digestion of 56 kD band of mouse heart membrane protein, mass spectrometry; format: biochemical
T4 construct: Total membrane protein from mouse heart was resolved in SDS-polyacrylamide gel; from tissue; host or cells: mouse heart, total membrane protein, 56 kD SDS-PAGE band
T4 sequence (P56480 47-529): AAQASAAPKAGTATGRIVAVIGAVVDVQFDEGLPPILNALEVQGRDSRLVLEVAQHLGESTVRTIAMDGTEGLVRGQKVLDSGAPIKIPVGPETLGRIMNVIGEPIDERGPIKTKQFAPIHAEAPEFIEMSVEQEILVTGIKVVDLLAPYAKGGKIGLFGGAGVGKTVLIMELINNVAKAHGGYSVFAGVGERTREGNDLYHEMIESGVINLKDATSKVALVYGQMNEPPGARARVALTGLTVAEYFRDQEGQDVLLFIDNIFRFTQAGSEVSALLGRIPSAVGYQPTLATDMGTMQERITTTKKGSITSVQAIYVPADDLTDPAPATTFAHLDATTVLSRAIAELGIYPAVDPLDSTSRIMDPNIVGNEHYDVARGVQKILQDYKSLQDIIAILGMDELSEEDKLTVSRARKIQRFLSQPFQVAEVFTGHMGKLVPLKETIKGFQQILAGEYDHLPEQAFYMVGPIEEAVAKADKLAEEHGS
Method: 13. Rehydrate for 5 minutes in 20 μL 12 ng/μL Trypsin Gold (in 0.025% surfactant A/50 mM […] AmBic). Overlay with 30 μL of 0.01% surfactant A/50 mM AmBic to cover gel pieces. Incubate 1 hour at 50° C.
Total membrane protein from mouse heart was resolved in SDS-polyacrylamide gel and a single protein band was digested with a conventional digestion protocol (control) and separately with a compound 3211-assisted protocol.
A band of the protein with an approximate MW of 56 kD was excised and digested with trypsin. The digested samples were analyzed by mass spectrometry. […] Asterisks indicate identified peptides for beta subunit of mouse ATP synthase (the major protein in 56 kD band).

[10] = Stability and degradation profile of surfactant 3211 solutions; format: physicochemical
Method: FIG. 1 illustrates the degradation profile of a 0.025% solution of surfactant 3211 at 40° C., according to one embodiment.
For example, degradation of surfactant compound 3211 after protein digestion is not required because the surfactant degrades during the digestion process. The stability of a 1% solution of 3211 (10% degradation) is 8 hours at 23° C., 12 days at 4° C., and an estimated >3 years at −20° C. However, the degradation rate of surfactant 3211 increases in a typical protein digestion protocol. […] Less than about 5% of intact surfactant remains after only 2 hours.

[11] = surfactant conc. 0.025% in 50 mM ammonium bicarbonate
[12] = surfactant conc. 1% in 50 mM ammonium bicarbonate
[13] = 1 hour in-gel digestion with surfactant

Structure (SMILES): CCCCCCCCCCOc1ccc(C(OCCc2ccc(N(CCCCS(=O)(=O)[O-])CCCCS(=O)(=O)[O-])cc2)(c2ccccc2)c2ccccc2)cc1.[Na+].[Na+] [Compound 3214]
- surfactant Pk area/RG Pk area, Bacteriorhodopsin/Chymotrypsin digest [1]: 0.6
- solubility in aqueous solutions (concentration dissolved to) [2]: 1%

Structure (SMILES): CCCCCCCCCCCC(C)(C)OC(=O)NCCCS(=O)(=O)O [Compound 3116]
- effect on trypsin activity (in words) (trypsin): stabilized trypsin activity
- time to degradation of 0.01% solution ([3]; 0.01% solution, 37° C. where stated): ≤ 2 h
- solubility in aqueous solutions (concentration dissolved to) [2]: ≥ 0.5%
- surfactant Pk area/RG Pk area, Myoglobin/Trypsin digest [4]: 0.6
- surfactant Pk area/RG Pk area, Bacteriorhodopsin/Chymotrypsin digest ([5]; BR heated (boiled) with surfactant 5 minutes at 95° C., chymotrypsin 10:1, 1 hour at 37° C., ratio to RapiGest control): 1.5
- identifiable peaks in HPLC chromatogram of myoglobin digest ([6]; 0.01% 3116, trypsin 50:1, one hour at 37° C.): > 15
- digestion of myoglobin in one hour (in words) [6]: largely digested within one hour

Structure (SMILES): CCCCCCCCCCCCOS(=O)(=O)[O-].[Na+] [SDS, sodium dodecyl sulfate, reference compound]
- deglycosylation of ovalbumin by PNGase F (in words) [7]: transformed into a deglycosylated 42.9 kD form
- effect on trypsin activity (in words) (trypsin): inhibited trypsin activity within 30 minutes

Structure (SMILES): CCCCCCCCCCCCC(OC(=O)NCCCS(=O)(=O)O)c1ccc(OC)c(OC)c1 (stereo not drawn) [Compound 3266]
- deglycosylation of ovalbumin by PNGase F (in words) [7]: rapidly removed carbohydrate from ovalbumin; also recorded: transformed into a deglycosylated 42.9 kD form
- ½-life [8, 11]: >>
- ½-life ([8]; surfactant conc. 0.25% in 50 mM ammonium bicarbonate): >>
- ½-life [8, 12]: >>
- time to degradation in 0.5% TFA ([3]; 37° C. where stated): ≤ 30 min
- thermolability (in words) ([3]; 3266: 5 minutes at 95° C.): not thermolabile
- solubility (concentration dissolved to) [2]: 2%
- surfactant Pk area/RG Pk area, Myoglobin/Trypsin digest [4]: 1.2

Structure (SMILES): CCCCCCCCCCC(OC(=O)NCCCS(=O)(=O)O)c1ccco1 (stereo not drawn) [Compound 3211]
- ½-life ([8]; 0.025%/20% AcN): 6 h
- ½-life ([8]; 0.025%/40% AcN): 52 h
- ½-life ([8]; 0.025%/60% AcN): >100 h
- ½-life ([8]; 0.025%/80% AcN): >>
- ½-life ([8]; 1%/50% AcN): >100 h
- ½-life ([8]; surfactant conc. 0.0025% in 50 mM ammonium bicarbonate): 0.5 h
- ½-life [8, 11]: 1.1 h
- ½-life ([8]; surfactant conc. 0.10% in 50 mM ammonium bicarbonate): 4.8 h
- ½-life [8, 12]: 21 h
- time to degradation in 0.5% TFA ([3]; 37° C. where stated): 15 min
- time to degradation by boiling without TFA ([3]; boiling without TFA): 5 min
- degradation at room temperature (in words) ([3]; room temperature): degrades even at room temperature at a substantial rate
- increase in sequence coverage versus protocol without surfactant [9]: 50%
- MASCOT score for beta subunit of ATP synthase [9, 13]: 920
- sequence coverage for beta subunit of ATP synthase [9, 13]: 75%
- solubility (concentration dissolved to) [2]: 1%
- intact surfactant remaining ([10]; 0.025% solution at 40° C., after 2 hours): Less than 5%
- stability of a 1% solution (10% degradation) ([10]; 1% solution, 4° C.): 12 days
- stability of a 1% solution (10% degradation) ([10]; 1% solution, 23° C.): 0.33 days
- stability of a 1% solution (10% degradation), estimated ([10]; 1% solution, −20° C.): > 3 years
- surfactant Pk area/RG Pk area, Myoglobin/Trypsin digest [4]: 1.3
- surfactant Pk area/RG Pk area, Bacteriorhodopsin/Chymotrypsin digest ([5]; BR solubilized at room temperature (not boiled), RapiGest control boiled): 0.9
- digestion of myoglobin in one hour (in words) [6]: complete digestion
